Data taken from patent publication US8314098B2, “Pyrazolo-pyrimidine compounds” (Ajinomoto Co., Inc., priority 2008, dated 2012).

Each molecule was assayed on IL-12p70 (the complex of IL-12p35 and p40) (assay: IL-12p70 production inhibition in macrophages derived from mouse abdomen (IFN-γ/SAC stimulation, ELISA)). Details: Macrophage; mouse (Balb/c) abdominal macrophages, 100 ng/mL mouse IFN-γ + 0.05% SAC, overnight; TFA salts tested where prepared as such; read-out: IL-12p70-Inhibitory Activity IC50.
Format: cell-based
Experimental: One milliliter each of a 3% (w/v) thioglycolate solution was intraperitoneally administered to mice (female Balb/c mice), the abdominal cells of each mouse were recovered after 5 or 6 days from the administration of the thioglycolate solution and the adhesive cells were collected and used in the exaluation procedures. To a culture medium containing such adhesive cells, there were added 100 ng/mL of mouse interferon-γ and a 0.05% (v/v) liquid containing killed cells derived from Staphylococcus aureus Cowan I strain (SAC) and a candidate compound and then the mixture was cultivated overnight. After the completion of the cultivation, the survival ratios were determined, there were quantitatively determined the quantities of IL-12p70 (the complex of IL-12p35 and p40) and IL-12p40 or TNF-α according to the ELISA assays while making use of the recovered supernatant of the culture medium and the 50% production-inhibitory concentration (IC50) was calculated for each case (see Table 1 and Tables 1-9 for IL-12p70 and TNF-α and Tables 1 to 10 for IL-12p40).
Cc1ccc(/C=N/Nc2cc(N3CCOCC3)n3nc(-c4ccccc4)cc3n2)o1 [Compound 54, N-(5-methyl-furan-2-yl-methylidene)-N′-(7-morpholin-4-yl-2-phenyl-pyrazolo[1,5-a]pyrimidin-5-yl)-hydrazine] gave an IC50 of 300 nM.
In the case of C(=N\Nc1cc(N2CCOCC2)n2nc(-c3ccccc3)cc2n1)/c1cccs1 [Compound 61, N-(7-morpholin-4-yl-2-phenyl-pyrazolo[1,5-a]pyrimidin-5-yl)-N′-(thiophen-2-yl-methylidene)-hydrazine], the IC50 is reported as 370 nM.
Work on Fc1cccc(/C=N/Nc2cc(N3CCOCC3)n3nc(-c4ccncc4)cc3n2)c1 [Compound 130, N-(3-fluoro-benzylidene)-N′-(7-morpholin-4-yl-2-pyridin-4-yl-pyrazolo[1,5-a]pyrimidin-5-yl)-hydrazine] yielded an IC50 of 140 nM.
Molecule C(=N\Nc1cc(N2CCOCC2)n2nc(N3CCCCC3)cc2n1)/c1c[nH]c2ccccc12 [Compound 101, N-(1H-indol-3-yl-methylidene)-N-(7-morpholin-4-yl-2-piperidin-1-yl-pyrazolo[1,5-a]pyrimidin-5-yl)-hydrazine] has an IC50 of 380 nM.
For Cc1cccc(/C=N/Nc2cc(N3CCOCC3)n3nc(N4CCCCC4)cc3n2)c1 [Compound 100, N-(3-methyl-benzylidene)-N-(7-morpholin-4-yl-2-piperidin-1-yl-pyrazolo[1,5-a]pyrimidin-5-yl)-hydrazine], the IC50 was 360 nM.
Work on Clc1cccc(/C=N/Nc2cc(N3CCOCC3)n3nc(-c4ccccc4)cc3n2)c1 [Compound 26, N-(3-chloro-benzylidene)-N′-(7-morpholin-4-yl-2-phenyl-pyrazolo[1,5-a]pyrimidin-5-yl)-hydrazine] yielded an IC50 of 120 nM.
CN(Cc1ccccc1)Nc1cc(N2CCOCC2)n2nc(-c3ccccc3)cc2n1 [Compound 66, N-benzyl-N-methyl-N′-(7-morpholin-4-yl-2-phenyl-pyrazolo[1,5-a]pyrimidin-5-yl)-hydrazine] showed an IC50 of 330 nM.
For Cc1[nH]c2ccc(/C=N/Nc3cc(N4CCOCC4)n4nc(-c5cccnc5)cc4n3)cc2c1C [Compound 105, N-(2,3-dimethyl-1H-indol-5-yl-methylidene)-N-(7-morpholin-4-yl-2-pyridin-3-yl-pyrazolo[1,5-a]pyrimidin-5-yl)-hydrazine], the IC50 was 89 nM.
Cc1ccccc1/C=N/Nc1cc(N2CCOCC2)n2nc(-c3ccccc3)cc2n1 [Compound 57, N-(2-methyl-benzylidene)-N′-(7-morpholin-4-yl-2-phenyl-pyrazolo[1,5-a]pyrimidin-5-yl)-hydrazine] gave an IC50 of 420 nM.
CC(/C=N/Nc1cc(N2CCOCC2)n2nc(-c3ccccc3)cc2n1)=C\c1ccccc1 [Compound 63, N-(2-methyl-3-phenyl-alkylidene)-N′-(7-morpholin-4-yl-2-phenyl-pyrazolo[1,5-a]pyrimidin-5-yl)-hydrazine] was tested, and the IC50 was 320 nM.
C(=N\Nc1cc(N2CCOCC2)n2nc(-c3cnccn3)cc2n1)/c1c[nH]c2ccccc12 [Compound 93, N-(1H-indol-3-yl-methylidene)-N′-(7-morpholin-4-yl-2-pyrazin-2-yl-pyrazolo[1,5-a]pyrimidin-5-yl)-hydrazine] was tested, and the IC50 was 6.5 nM.
In the case of Cc1cc(-c2cc3nc(N/N=C/c4c[nH]c5ccccc45)cc(N4CCOCC4)n3n2)no1 [Compound 99, N-(1H-indol-3-yl-methylidene)-N′-[2-(5-methylisoxazol-3-yl)-7-morpholin-4-yl-pyrazolo[1,5-a]pyrimidin-5-yl]-hydrazine], the IC50 is reported as 16 nM.
For Cc1ccc(-c2cc3nc(N/N=C/c4c[nH]c5ccccc45)cc(N4CCOCC4)n3n2)cn1 [Compound 112, N-(1H-indol-3-yl-methylidene)-N′-[2-(6-methyl-pyridin-3-yl)-7-morpholin-4-yl-pyrazolo[1,5-a]pyrimidin-5-yl]-hydrazine], the IC50 was 7.5 nM.
In the case of CCc1cccc(/C=N/Nc2cc(N3CCOCC3)n3nc(-c4cccnc4)cc3n2)c1 [Compound 115], the IC50 is reported as 55 nM.
COc1ccc(/C=N/Nc2cc(N3CCOCC3)n3nc(-c4ccccc4)cc3n2)cc1 [Compound 30, N-(4-methoxy-benzylidene)-N′-(7-morpholin-4-yl-2-phenyl-pyrazolo[1,5-a]pyrimidin-5-yl)-hydrazine] showed an IC50 of 180 nM.
